Earlier results as cited in article PMC10458307, “New Scaffolds of Proteasome Inhibitors: Boosting Anticancer Potential by Exploiting the Synergy of In Silico and In Vitro Methodologies” (Pharmaceuticals, 2023).
Peptide text beside a SMILES is read from it. * marks the point of attachment. Cbz = O=C(OCc1ccccc1)*

System: proteasome CT-L active site
Conditions: literature values of known proteasome inhibitors; reference per compound; cited from earlier work

Structure (SMILES)	IC50 [nM]
O=c1cc(-c2ccc(O)cc2)oc2cc(O)cc(O)c12 [Apigenin]	1800
Oc1cc(O)c2cc(O)c(-c3ccc(O)c(O)c3)[o+]c2c1 [Cyanidin]	18400
Oc1cc(O)c2cc(O)c(-c3cc(O)c(O)c(O)c3)[o+]c2c1 [Delphinidin]	32400
CC[C@H](C)[C@H](NC(=O)[C@H]([C@@H](C)CC)N(C)C(C)=O)C(=O)N[C@H](C(=O)N[C@@H](CC(C)C)C(=O)[C@@]1(C)CO1)[C@@H](C)O [Epoxomicin]	47
CCCCCCCCC[C@@H](O)CC(=O)N[C@@H](CC(N)=O)C(=O)N[C@@H](CCC(N)=O)C(=O)N[C@H](C=O)CC(C)C [Fellutamide B]	9.4
O=c1c(O)c(-c2ccc(O)cc2)oc2cc(O)cc(O)c12 [Kaempferol]	10500
CC(C)C[C@@H](C=O)NC(=O)[C@H](CC(C)C)NC(=O)[C@H](CC(C)C)NC(=O)OCc1ccccc1 [MG-132] (Cbz-Leu-Leu-Leu-aldehyde)	40
COc1cc(-c2[o+]c3cc(O)cc(O)c3cc2O)cc(OC)c1O [Malvidin]	32000
O=c1c(O)c(-c2ccc(O)c(O)c2)oc2cc(O)cc(O)c12 [Quercetin]	3500
C/C=C\NC(=O)[C@H]1NC(=O)[C@H](CC(N)=O)NC(=O)[C@@H](NC(=O)C(=O)[C@@H](C)CC)Cc2ccc(O)c(c2)-c2cccc3c2NC(=O)[C@@]3(O)[C@@H]1O [TMC-95A]	5.4

System: proteasome C-L active site
Conditions: literature values; ref 34 (bortezomib), 35 (ixazomib); cited from earlier work

Structure (SMILES)	IC50 [µM]
CC(C)C[C@H](NC(=O)CNC(=O)c1cc(Cl)ccc1Cl)B(O)O [Ixazomib, ixazomib]	0.031

System: proteasome T-L activity
Design: method as in PMID 16286248
Conditions: literature value; cited from earlier work

Structure (SMILES)	IC50 [µM]
C[C@@]12OC(=O)[C@]1([C@@H](O)[C@@H]1C=CCCC1)NC(=O)[C@@H]2CCCl [Marizomib, marizomib]	0.028
